# Measurements published in the supplement of paper PMC10307832.
# What was measured:
# Experiment in all cases: relative viability (nuclei count vs DMSO), 5 days (fraction); higher = more cells survive
# Nelarabine + Crizotinib = compound: COc1nc(N)nc2c1ncn2[C@@H]1O[C@H](CO)[C@@H](O)[C@@H]1O [Nelarabine] + C[C@@H](Oc1cc(-c2cnn(C3CCNCC3)c2)cnc1N)c1c(Cl)ccc(F)c1Cl [Crizotinib] (partner 1 µM)
# Outline: (§1)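 A single step with final 0.05% Triton X-100, 1% formaldehyde and 1 ug/ml Hoechst fixed the cells and stained nuclei 5 days after treatment. Lung cancer cell lines in 1536-well plates had been treated by pin tool the day after seeding with one drug alone or a fixed anchor-drug dose plus five library-drug doses (not always all listed) in √10 steps, and nuclei were counted on 4× images. Relative viability is the ratio of nuclei in treated wells to nuclei in vehicle wells, taken as the median of duplicate plates.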
# Nelarabine + OSI-027 = compound: COc1nc(N)nc2c1ncn2[C@@H]1O[C@H](CO)[C@@H](O)[C@@H]1O [Nelarabine] + COc1cccc2cc(-c3nc([C@H]4CC[C@H](C(=O)O)CC4)n4ncnc(N)c34)[nH]c12 [OSI-027] (partner 0.5 µM)
# Outline: as §1
# Adavosertib + Olaparib = compound: C=CCn1c(=O)c2cnc(Nc3ccc(N4CCN(C)CC4)cc3)nc2n1-c1cccc(C(C)(C)O)n1 [Adavosertib] + O=C(c1cc(Cc2n[nH]c(=O)c3ccccc23)ccc1F)N1CCN(C(=O)C2CC2)CC1 [Olaparib] (partner 8 µM)
# Outline: as §1
# Nelarabine + Trametinib = compound: COc1nc(N)nc2c1ncn2[C@@H]1O[C@H](CO)[C@@H](O)[C@@H]1O [Nelarabine] + CC(=O)Nc1cccc(-n2c(=O)n(C3CC3)c(=O)c3c(Nc4ccc(I)cc4F)n(C)c(=O)c(C)c32)c1 [Trametinib] (partner 0.02 µM)
# Outline: as §1
Cell Line,relative viability (Nelarabine + Crizotinib; first compound 0.01 µM),relative viability (Nelarabine + Crizotinib; first compound 0.03162 µM),relative viability (Nelarabine + Crizotinib; first compound 0.1 µM),relative viability (Nelarabine + Crizotinib; first compound 0.3162 µM),relative viability (Nelarabine + Crizotinib; first compound 1 µM),relative viability (Nelarabine + OSI-027; first compound 0.01 µM),relative viability (Nelarabine + OSI-027; first compound 0.03162 µM),relative viability (Nelarabine + OSI-027; first compound 0.1 µM),relative viability (Nelarabine + OSI-027; first compound 0.3162 µM),relative viability (Nelarabine + OSI-027; first compound 1 µM),relative viability (Adavosertib + Olaparib; first compound 0.01 µM),relative viability (Adavosertib + Olaparib; first compound 0.03162 µM),relative viability (Adavosertib + Olaparib; first compound 0.1 µM),relative viability (Adavosertib + Olaparib; first compound 0.3162 µM),relative viability (Nelarabine + Trametinib; first compound 0.01 µM),relative viability (Nelarabine + Trametinib; first compound 0.03162 µM),relative viability (Nelarabine + Trametinib; first compound 0.1 µM),relative viability (Nelarabine + Trametinib; first compound 0.3162 µM),relative viability (Nelarabine + Trametinib; first compound 1 µM)
SK-MES-1,1.07,0.922,0.961,1.05,1.1,0.698,0.579,0.62,0.683,0.611,0.748,0.805,0.379,0.233,0.56,0.567,0.57,0.555,0.615
NCI-H2170,1.47,1.01,1.24,1.35,1.26,0.716,0.67,0.704,0.656,0.753,0.643,0.586,0.588,0.448,1.26,0.804,0.997,0.944,0.911
NCI-H1648,–,–,–,–,–,0.237,0.282,0.264,0.256,0.281,0.953,0.966,1.39,0.769,–,0.656,–,0.451,0.477
UMC-11,0.52,0.499,0.476,0.652,0.495,0.655,0.569,0.586,0.476,0.503,0.411,0.429,0.452,1.03,0.855,0.659,0.755,0.767,0.843
HCC-15,1.01,0.782,0.86,0.97,0.887,0.817,0.559,0.675,0.703,0.778,0.73,0.727,0.958,0.876,0.431,0.427,0.307,0.42,0.386
HCC-78,0.379,0.365,–,0.34,0.338,0.306,0.35,–,0.385,0.372,0.966,0.807,0.83,0.835,1.19,0.74,–,0.853,0.96
NCI-H647,1.37,1.22,1.13,1.41,1.14,0.481,0.683,0.68,0.68,0.571,0.549,0.581,0.459,0.209,0.584,0.423,0.537,0.548,0.502
NCI-H2009,1.12,0.99,0.971,1.08,1.05,0.767,0.643,0.546,0.696,0.71,0.686,0.739,0.802,0.777,0.28,0.224,0.215,0.287,0.266
NCI-H520,0.607,0.519,0.871,1.07,0.851,0.321,0.233,0.233,0.395,0.264,0.345,0.332,0.308,0.332,0.817,0.599,0.757,0.903,0.697
RERF-LC-KJ,0.871,0.954,0.82,0.846,0.902,0.654,0.524,0.505,0.59,0.627,0.952,0.986,1.05,0.955,1.03,1,0.934,0.986,0.862
NCI-H441,0.715,0.856,0.723,0.836,0.716,0.535,0.497,0.592,0.782,0.647,0.533,0.477,0.577,0.462,0.432,0.482,0.469,0.446,0.466
NCI-H1666,1.03,0.679,0.949,0.975,1.03,0.874,0.955,0.89,0.915,0.908,0.774,0.754,0.745,0.738,0.82,1,0.738,0.839,0.859
NCI-H1755,0.941,0.908,0.874,0.969,0.946,0.647,0.642,0.699,0.835,0.781,0.87,0.936,0.891,0.72,0.852,0.777,0.753,0.692,0.836
COR-L23,0.692,0.706,0.574,0.617,0.628,0.911,0.611,0.854,0.878,0.759,0.339,0.34,0.227,0.163,0.779,0.558,0.516,0.612,0.777
SK-LU-1,1.27,0.518,1.04,1.01,0.994,0.287,0.267,0.364,0.396,0.327,0.498,0.461,0.389,0.249,0.523,0.42,0.421,0.558,0.514
SW 900,–,–,–,–,–,0.569,0.551,0.565,0.452,0.655,0.722,0.851,0.779,0.399,0.642,0.778,0.765,0.777,0.753
PC-3 [JPC-3],1.15,1.02,1.01,0.977,0.968,0.854,0.604,0.73,0.744,0.685,–,1.09,1.2,1.14,0.753,0.808,0.683,0.672,0.775
EKVX,1.16,0.83,0.894,1.41,0.979,0.797,0.661,0.652,0.729,0.685,0.756,0.841,0.783,0.833,0.402,0.306,0.587,0.282,0.472
NCI-H322M,0.884,0.88,0.853,0.948,0.837,0.575,0.544,0.431,0.516,0.612,0.771,0.801,0.699,0.425,0.547,0.505,0.383,0.402,0.511
NCI-H2087,1.22,0.965,0.88,0.819,0.84,0.568,0.639,0.489,0.676,0.517,0.663,0.595,0.606,0.604,0.181,0.167,0.196,0.245,0.202

Cell Line,relative viability (Nelarabine + Crizotinib; first compound 0.01 µM),relative viability (Nelarabine + Crizotinib; first compound 0.03162 µM),relative viability (Nelarabine + Crizotinib; first compound 0.1 µM),relative viability (Nelarabine + Crizotinib; first compound 0.3162 µM),relative viability (Nelarabine + Crizotinib; first compound 1 µM),relative viability (Nelarabine + OSI-027; first compound 0.01 µM),relative viability (Nelarabine + OSI-027; first compound 0.03162 µM),relative viability (Nelarabine + OSI-027; first compound 0.1 µM),relative viability (Nelarabine + OSI-027; first compound 0.3162 µM),relative viability (Nelarabine + OSI-027; first compound 1 µM),relative viability (Adavosertib + Olaparib; first compound 0.01 µM),relative viability (Adavosertib + Olaparib; first compound 0.03162 µM),relative viability (Adavosertib + Olaparib; first compound 0.1 µM),relative viability (Adavosertib + Olaparib; first compound 0.3162 µM),relative viability (Nelarabine + Trametinib; first compound 0.01 µM),relative viability (Nelarabine + Trametinib; first compound 0.03162 µM),relative viability (Nelarabine + Trametinib; first compound 0.1 µM),relative viability (Nelarabine + Trametinib; first compound 0.3162 µM),relative viability (Nelarabine + Trametinib; first compound 1 µM)
NCI-H2405,0.918,0.824,0.769,0.784,0.818,0.722,0.66,0.471,0.632,0.624,–,0.865,0.907,0.898,0.642,0.612,0.528,0.677,0.643
NCI-H1915,1.23,0.941,0.953,0.916,0.881,0.675,0.666,0.678,0.706,0.684,0.258,0.277,0.264,0.269,0.328,0.318,0.284,0.299,0.305
NCI-H1395,–,–,–,–,–,0.611,0.587,0.632,0.615,0.634,0.561,0.547,0.409,0.438,1.12,1.1,0.946,1.05,1.12
LOU-NH91,0.755,1,0.73,0.739,0.733,0.738,0.785,0.657,0.765,0.748,0.857,0.917,0.946,0.928,0.856,0.731,0.769,0.804,0.794
SW 1573,0.788,0.769,0.745,0.733,0.717,1.19,0.836,0.548,0.701,0.619,0.507,0.564,0.663,0.372,0.667,0.599,0.566,0.631,0.512
NCI-H23,0.505,0.485,0.297,0.495,0.515,0.686,0.504,0.512,0.738,0.62,0.339,0.317,0.24,0.138,0.403,0.404,0.343,0.378,0.409
NCI-H1993,0.96,0.891,0.775,0.93,1.02,0.596,0.502,0.551,0.567,0.585,0.97,1.01,0.988,1.26,0.531,0.48,0.479,0.487,0.588
HARA,1.21,1.09,0.909,1.24,1.12,0.645,0.583,0.439,0.671,0.487,0.464,0.535,0.766,0.187,0.412,0.703,0.676,0.754,0.718
EBC-1,0.157,0.178,0.182,0.235,0.194,–,–,–,–,–,0.624,0.765,0.83,0.647,–,–,–,–,–
NCI-H1563,0.815,0.93,0.797,0.845,0.841,0.847,0.722,0.785,0.739,0.863,–,–,–,–,–,–,–,–,–
IA-LM,1.08,0.674,0.844,0.876,0.791,–,–,–,–,–,0.809,0.82,0.872,0.775,–,–,–,–,–
NCI-H1299,1.04,1.03,0.963,0.979,0.966,–,–,–,–,–,0.953,0.959,1.04,0.357,–,–,–,–,–
NCI-H1703,0.577,0.701,0.78,1.01,0.594,–,–,–,–,–,0.507,0.545,0.387,0.141,–,–,–,–,–
Calu-6,0.848,0.613,0.879,0.825,0.826,–,–,–,–,–,0.629,0.552,0.523,0.216,–,–,–,–,–
NCI-H522,–,–,–,–,–,0.758,0.76,0.713,0.722,0.687,0.724,0.644,0.647,0.734,0.82,1.03,0.662,0.726,0.742
NCI-H1623,–,–,–,–,–,0.436,0.374,0.392,0.379,0.391,–,–,–,–,–,–,–,–,–
NCI-H1793,–,–,–,–,–,0.327,0.238,0.247,0.372,0.326,0.739,0.794,0.746,0.529,0.474,–,0.421,0.424,0.466
NCI-H2342,–,–,–,–,–,0.734,0.533,0.564,0.75,0.626,0.497,0.561,0.492,0.524,0.87,0.825,0.847,0.701,0.907
A549,0.735,0.666,0.742,0.803,0.671,–,–,–,–,–,0.356,0.336,0.446,0.438,–,–,–,–,–
ABC-1,1.07,1.09,0.994,1.14,0.976,0.535,0.48,0.38,0.44,0.477,0.942,0.779,1.02,0.664,–,–,–,–,–
